The values that follow come from ChEMBL document CHEMBL3400006, “Improving the passive permeability of macrocyclic peptides: Balancing permeability with other physicochemical properties” (Bioorg Med Chem, 2015).

The nature of data set [1]: Lipophilicity, log D of the compound at pH 7.4 by ChromlogD analysis. The format is physicochemical. To be noted: buffer.
The nature of data set [2]: Permeability of the compound at donor pH 7.4 and acceptor pH 7.4 after 3 hrs incubation by PAMPA analysis. The format is ADME. To be noted: read-out: permeability. For orientation: The PAMPA barrier holds no transporters, so it reflects passive diffusion.
Data set [3] is described as follows: Solubility of the compound in phosphate buffer at pH 7.4 by chemi-luminescent nitrogen detection method. It is filed as physicochemical.

Values after ≈ are worked out from the molar mass of the structure shown. Square brackets hold non-standard residues; d marks the D form. Peptide text beside a SMILES is read from it. 2Pal = N[C@@H](Cc1ccccn1)C(=O)O; 4Pal = N[C@@H](Cc1ccncc1)C(=O)O A value given as a limit tells only on which side of the number the result lay.

Consider `CC(C)C[C@@H]1NC(=O)[C@@H](CC(C)C)NC(=O)[C@H](CC(C)C)NC(=O)[C@@](C)(CC(C)C)NC(=O)[C@@H](Cc2ccc(O)cc2)NC(=O)[C@@H]2CCCN2C(=O)[C@H](CC(C)C)NC1=O`, for which, in data set [1], the chromatographic logD (in general, a lipophilicity value derived from retention on a column) was determined as 7.21. In data set [2], the Papp at 3 h is 30 ×10⁻⁶ cm/s. The solubility (in general, the dissolved amount per volume that the medium holds) in data set [3] is 28.5 µM (≈ 23.9 µg/mL).

The molecule `CC(C)C[C@@H]1NC(=O)[C@H](Cc2ccc(O)cc2)N(C)C(=O)[C@@H]2CCCN2C(=O)[C@H](CC(C)C)NC(=O)[C@H](CC(C)C)N(C)C(=O)[C@@H](CC(C)C)N(C)C1=O` yielded a chromatographic logD in data set [1] of 8.32. Moreover, the solubility in data set [3] was 53.7 µM (≈ 40.5 µg/mL).

Consider `CC(C)C[C@@H]1NC(=O)[C@@H](CC(C)C)NC(=O)[C@H](CC(C)C)NC(=O)[C@@H](CC(C)C)NC(=O)[C@H](Cc2ccc(O)cc2)NC(=O)[C@@H]2CCCN2C(=O)[C@H](CC(C)C)NC1=O`, for which the chromatographic logD in data set [1] came out at 5.98. In addition, the Papp at 3 h in data set [2] is 13 ×10⁻⁶ cm/s. This molecule also returned a solubility in data set [3] of 51.7 µM (≈ 42.7 µg/mL).

As to `CC(C)C[C@@H]1NC(=O)[C@@H](CC(C)C)NC(=O)[C@H]([C@@H](C)O)NC(=O)[C@H](Cc2ccc(O)cc2)NC(=O)[C@@H]2CCCN2C(=O)[C@H](CC(C)C)NC1=O`, the chromatographic logD in data set [1] amounted to 4.65. Besides, in data set [2], the Papp at 3 h was under 0.65 ×10⁻⁶ cm/s. For the same molecule, the concentration in solution in data set [3] (solubility) came to 372 µM (≈ 261 µg/mL).

Turning to `CC(C)C[C@@H]1NC(=O)[C@@H](CC(C)C)NC(=O)[C@H](CC(C)C)NC(=O)[C@@](C)(CC(C)C)NC(=O)[C@H](Cc2ccc(O)cc2)NC(=O)[C@@H]2CCCN2C(=O)[C@H](CC(C)C)NC1=O`, in data set [1], the chromatographic logD is 6.65. For the same molecule, the Papp at 3 h in data set [2] worked out at 30.3 ×10⁻⁶ cm/s. The molecule further gave a solubility in data set [3] of 102 µM (≈ 86.1 µg/mL).

On to `CC(C)C[C@@H]1NC(=O)[C@H](Cc2ccc(O)cc2)NC(=O)[C@@H]2CCCN2C(=O)[C@H](CC(C)C)NC(=O)[C@](C)(CC(C)C)NC(=O)[C@@H](CC(C)C)NC1=O`, for which the chromatographic logD in data set [1] amounted to 6.56. Also, the Papp at 3 h in data set [2] stood at 35 ×10⁻⁶ cm/s. Besides, the concentration in solution in data set [3] (solubility) came to 78 µM (≈ 56.7 µg/mL).

For the molecule `CC(C)C[C@@H]1NC(=O)[C@H](Cc2ccc(O)cc2)NC(=O)[C@@H]2CCCN2C(=O)[C@H](CC(C)C)NC(=O)[C@H](CC(C)C)NC(=O)[C@H](Cc2ccccc2)NC1=O` (cyclo(FLLPYL)), in data set [1], the chromatographic logD amounted to 6.05. Also, the Papp at 3 h in data set [2] turned out to be 20 ×10⁻⁶ cm/s. For the same molecule, the concentration in solution in data set [3] (solubility) was 206 µM (≈ 153 µg/mL).

Molecule `CC(C)C[C@@H]1NC(=O)[C@H](CC(C)C)NC(=O)[C@@H](CC(C)C)NC(=O)[C@H](Cc2ccc(O)cc2)NC(=O)[C@@H]2CCCN2C(=O)[C@H](CC(C)C)NC1=O` registered a chromatographic logD in data set [1] of 5.07. The concentration in solution in data set [3] (solubility) was 324 µM (≈ 231 µg/mL).

`CC(C)C[C@@H]1NC(=O)[C@H](Cc2ccc(O)cc2)NC(=O)[C@@H]2CCCN2C(=O)[C@H](CC(C)C)NC(=O)[C@H](CC(C)C)N(C)C(=O)[C@@H](CC(C)C)N(C)C1=O` registered a chromatographic logD in data set [1] of 7.52. Further, the Papp at 3 h in data set [2] was 34.7 ×10⁻⁶ cm/s. Besides, the concentration in solution in data set [3] (solubility) came to 103 µM (≈ 76.3 µg/mL).

`CC(C)C[C@@H]1NC(=O)[C@H](Cc2ccc(O)cc2)NC(=O)[C@@H]2CCCN2C(=O)[C@H](CC(C)C)NC(=O)[C@H](CC(C)C)NC(=O)[C@H](Cc2ccccn2)NC1=O` (cyclo([2Pal]LLPYL)): in data set [1], the chromatographic logD is 4.75. Moreover, the Papp at 3 h in data set [2] stood at 1.35 ×10⁻⁶ cm/s. The molecule further displayed a solubility in data set [3] of 485 µM (≈ 363 µg/mL).

Molecule `CC(C)C[C@@H]1NC(=O)[C@@H](CC(C)C)N(C)C(=O)[C@H](CC(C)C)NC(=O)[C@H](Cc2ccc(O)cc2)NC(=O)[C@@H]2CCCN2C(=O)[C@H](CC(C)C)NC1=O` returned a chromatographic logD in data set [1] of 6.19. Besides, in data set [2], the Papp at 3 h stood at 14.4 ×10⁻⁶ cm/s. For the same molecule, in data set [3], the solubility was 192 µM (≈ 140 µg/mL).

As to `CC(C)C[C@@H]1NC(=O)[C@@H](CC(C)C)NC(=O)[C@@H](CC(C)C)NC(=O)[C@H](Cc2ccc(O)cc2)NC(=O)[C@H]2CCCN2C(=O)[C@@H](CC(C)C)NC1=O`, the chromatographic logD in data set [1] came out at 5.57. This molecule also registered a solubility in data set [3] of 248 µM (≈ 177 µg/mL).

The molecule `CC(C)C[C@@H]1NC(=O)[C@@H](CC(C)C)NC(=O)[C@@H]([C@H](C)O)NC(=O)[C@H](Cc2ccc(O)cc2)NC(=O)[C@@H]2CCCN2C(=O)[C@H](CC(C)C)NC1=O` displayed a chromatographic logD in data set [1] of 4.2. Also, in data set [2], the Papp at 3 h came out at 1.05 ×10⁻⁶ cm/s. This molecule yielded a solubility in data set [3] of 371 µM (≈ 260 µg/mL).

Molecule `CC(C)C[C@@H]1NC(=O)[C@H](Cc2ccc(O)cc2)NC(=O)[C@@H]2CCCN2C(=O)[C@H](CC(C)C)NC(=O)[C@H](CC(C)C)NC(=O)[C@@H](CC(C)C)NC1=O` registered a chromatographic logD in data set [1] of 5.53. The same molecule displayed a solubility in data set [3] of 170 µM (≈ 121 µg/mL).

Regarding `CC(C)C[C@@H]1NC(=O)[C@H](Cc2ccc(O)cc2)NC(=O)[C@@H]2CCCN2C(=O)[C@H](CC(C)C)NC(=O)[C@H](CC(C)C)NC(=O)[C@H](Cc2ccncc2)NC1=O` (cyclo([4Pal]LLPYL)), the chromatographic logD in data set [1] was 4.45. The Papp at 3 h in data set [2] is under 0.65 ×10⁻⁶ cm/s. Besides, in data set [3], the solubility was 451 µM (≈ 337 µg/mL).

For `CC(C)C[C@@H]1NC(=O)[C@@H](CC(C)C)NC(=O)[C@H](Cc2ccc(O)cc2)NC(=O)[C@@H]2CCCN2C(=O)[C@H](CC(C)C)NC(=O)[C@](C)(CC(C)C)NC(=O)[C@@H](CC(C)C)NC1=O`, the chromatographic logD in data set [1] was found to be 6.88. Moreover, in data set [2], the Papp at 3 h stood at 18.5 ×10⁻⁶ cm/s. The same molecule came in with a solubility in data set [3] of 122 µM (≈ 103 µg/mL).

`CC(C)C[C@@H]1NC(=O)[C@@H](CC(C)C)NC(=O)[C@](C)(CC(C)C)NC(=O)[C@H](Cc2ccc(O)cc2)NC(=O)[C@@H]2CCCN2C(=O)[C@H](CC(C)C)NC1=O` yielded a chromatographic logD in data set [1] of 6.11. For the same molecule, the Papp at 3 h in data set [2] is 17 ×10⁻⁶ cm/s. In data set [3], this molecule returned a solubility of 148 µM (≈ 108 µg/mL).
